Data taken from patent publication US8614064B2, “Methods of diagnosing atherosclerosis by measuring ApoCI” (The Johns Hopkins University, priority 2003, dated 2013).

Columns and labels:
[1] = system: human aortic smooth muscles cells (ASMC); assay: DNA laddering assay; assay type: cell-based; settings: ApoCI or ApoCIII 2.5 μg/mL, TNF-α positive control
Description: (§1) FIGS. 1A-1C depict the effect of apolipoproteins on apoptosis in human aortic smooth muscles cells (ASMC). ASMC were grown on sterilized glass cover slips and incubated for 24 hours with media alone (control), ApoCIII (negative control, 2.5 μg/mL medium), ApoCI (2.5 μg/mL medium), ApoCI-enriched HDL (1 μg apoA-I/mL medium), or ApoCI-poor HDL (5 μg apoA-I/mL medium) for 24 hours. Cells were then fixed with ethanol-acetic acid (3:1 volume/volume) and washed 3 times with phosphate-buffered saline. The cells were then stained with DAPI reagent, mounted on a glass cover slide, and subjected to fluorescence microscopy. FIG. 1A: The nucleus of normal cells stains blue and the nucleus of apoptotic cells stains is fragmented white. FIG. 1B: 300 to 500 cells in each sample were counted and the percent of apoptotic cells was plotted. Values are mean±SD; **P<0.01, ***P<0.001. FIG. 1C: DNA ladder assay. Confluent cultures of ASMC were incubated with control medium alone, ApoCI (2.5 μg/mL medium), ApoCIII (negative control, 2.5 μg/mL medium), and TNF-α (positive control, 20 ng/mL medium). Genomic DNA was extracted and 10 μg DNA was subjected to agarose gel electrophoresis. The gels were calibrated with commercially available DNA standards. After electrophoresis, the gels were stained with ethidium bromide and then photographed.
Cells were treated with either TNF-α (30 ng/ml), ApoCI or ApoCIII (2.5 μg/ml) for 6 h. The cells were then washed twice with minimal essential medium and harvested with buffer (10 mM HEPES, pH 7.4. 5 mM EDTA, 0.25 mM EGTA, 50 mM NaF, 5 mM β-mercaptoethanol, 0.35 M sucrose, 0.1% Nonidet and protease inhibitors, 1 mM phenylmethylsulfonyl fluoride, 2 μg/ml leupeptin and 5 μg/ml pepstatin), and pelleted. Genomic DNA was prepared employing standard protocol. Genomic DNA was subjected to electrophoresis, stained with ethidium bromide and the gel was photographed. The gel was calibrated using DNA fragments of known molecular weight.

[2] = system: human aortic smooth muscles cells (ASMC); assay: Fluorescence microscope quantitative assay of apoptotic death (DAPI staining); assay type: cell-based; settings: for apoptotic cells by white staining of the nucleus with DAPI (FIG. 1A): 2.5 μg/mL medium; for percent of apoptotic cells (DAPI, FIG. 1B): ApoCI and ApoCIII 2.5 μg/mL medium, ApoCI-enriched HDL 1 μg apoA-I/mL, ApoCI-poor HDL 5 μg apoA-I/mL, control 2.24%
Description: as §1
FIGS. 2A-2B depict the effect of ApoCI, the N-SMase inhibitor, GW4869, and C-2 ceramide on apoptosis in cultured human ASMC. FIG. 2A: ASMC (1×10^3) were seeded on sterilized glass cover slips and grown in tissue culture medium with 10% fetal calf serum for 48 hours. […] Thirty minutes later, vehicle DMSO, ApoCI (2.5 μg/mL), or C2-ceramide (10 μmol/L) were added to dishes, and the incubation continued for 24 hours. The cells were then fixed with ethanol-acetic acid (3:1 v/v), stained with DAPI reagent, assessed by fluorescent microscopy, and photographed. Top to bottom: control cells; cells incubated with ApoCI± the N-SMase inhibitor, GW4869; and cells incubated with ApoCI GW4869, and C2-ceramide. FIG. 2B: The DAPI-stained ASMC from the four experimental conditions described was analyzed for quantitative apoptosis. Mean (SD) from 4 experiments. *P<0.05.
Human AoSMC that were negative for mycoplasma, hepatitis B and C and HIV-1 were purchased from Clonetics (San Diego, Calif.) and cultured in Dulbecco's minimal essential medium (Invitrogen, Carlsbad, Calif.) with 10% fetal bovine serum (Hyclone, Salt Lake City, Utah), 100-units/ml penicillin, 100-μg/ml streptomycin to confluence. The cells were incubated in serum-free medium for 30 min prior to initiating the experiments. Cells were then washed and harvested in PBS, and centrifuged at 1500 rpm for 5 min at 4° C. Protease inhibitors were then added and the pellets stored frozen at −30° C. until use.
1×10^3 cells were grown on sterilized glass cover slips in 6-well trays and treated with ApoCI (2.5 μg/ml medium), ApoCIII (2.5 μg/ml medium), tumor necrosis factor (TNF)-α (30 ng/ml), ApoCI-enriched HDL (1 μg apoA-I/ml medium) and ApoCI-poor HDL (5 μg apoA-I/ml medium). After 24 h incubation, the medium was removed, cells fixed with ethanol:acetic acid […] and stored at 4° C. Next, the fixing solution was removed and cells stored frozen at −30° C. Cover slips were mounted on the microscope slides and stained with DAPI reagent (4,6-diamino-2-phenylindol, dihydrochloride). The stained nuclei were visualized by fluorescence microscopy (Zeiss Axiovert 25). Apoptotic cells were determined after counting—500 cells in a double blind fashion.

Compound | DNA laddering on agarose gel (FIG. 1C) [1] | apoptotic cells by white staining of the nucleus with DAPI (FIG. 1A) ([2]; 24 h) | percent of apoptotic cells (DAPI, FIG. 1B) ([2]; 24 h) [%] | ApoCI-induced apoptosis, percent apoptotic cells (FIG. 2B) ([2]; ApoCI 2.5 μg/mL, 24 h, control ~2%) [%] | effect of GW4869 on ApoCI-induced apoptosis, lower dose ([2]; GW4869 10 μmol/L) | effect of GW4869 on ApoCI-induced apoptosis ([2]; GW4869 20 μmol/L, 30 min before ApoCI 2.5 μg/mL, 24 h)
ApoCIII: purified human ApoCIII purchased from Academy Bio-Medical Company, used as negative control | did not exhibit significant DNA laddering | only a few apoptotic cells | 4.78 | – | – | –
Apolipoprotein C-I (TPDVSSALDKLKEFGNTLEDKARELISRIKQSELSAKMREWFSETFQKVKEKLKIDS; UniProt P02654 27-83, looked up) [ApoCI, 6.6-kDa single-chain plasma protein of 57 amino acids; purified human ApoCI purchased from Academy Bio-Medical Company] | exhibited DNA laddering | many apoptotic cells | 26.19 | ~12 | – | –
O=C(/C=C/c1ccc(/C=C/C(=O)Nc2ccc(C3=NCCN3)cc2)cc1)Nc1ccc(C2=NCCN2)cc1 [GW4869] | – | – | – | – | also observed | completely abrogated
